{"source": "patent US5480888A", "about": "“Inhibitor for restenosis after percutaneous coronary arterioplasty” (Daiichi Pharmaceutical Co., Ltd., priority 1992, dated 1996)", "test_system": "post PTCA vessels", "assay": "Clinical test: restenosis after elective PTCA in patients with angina pectoris (coronary angiography, video-densitometry)", "type": "in vivo", "experimental": "29 patients suffering from angina pectoris who received elective PTCA (43 sites ) orally took 2-phenyl-1,2-benzoisoselenazol-3(2H )-one (hereinafterreferred to as compound A) after meal with a daily dose of 200 mg, twice a day, 100 mg for each time, starting from three days prior to the PTCA operation over 3 months after operation (treated group ). […] The stenosed degree was measured by video-densitometry (Reiber JHC et al., Circulation 1985; 71:280-288), and inhibition of restenosis was evaluated on the basis of the findings. […]\nIn both of the treated and control groups, calcium antagonists such as nifedipine and diltiazem, and antiarteriosclerotic agents such as elastase were concurrently administered as required. As a result, there was no significant difference according to the .chi.^2 test between the two groups with regard to the use of concomitant compounds and other patient characteristics including the age, the site of the lesion, etc."}
{"smiles": "O=c1c2ccccc2[se]n1-c1ccccc1", "note": "[compound A, 2-phenyl-1,2-benzoisoselenazol-3(2H)-one]", "values": [{"measurement": "onset rate of restenosis based on the number of patients", "setting": "6 months after operation, treated group, 29 patients, control 38.2%", "value": 18.6, "unit": "%"}, {"measurement": "inhibition of restenosis in the location of operation", "setting": "compared to the control group, Table 2", "value": "remarkable inhibition of restenosis"}, {"measurement": "Stenosed Degree Before PTCA", "setting": "treated group, 43 sites, 100 mg twice a day orally from three days prior to PTCA, control 87 +/- 11", "value": "89 +/- 10"}, {"measurement": "Stenosed Degree 3 Months after PTCA", "setting": "treated group, 43 sites, 100 mg twice a day orally, control 78 +/- 39, *P<0.05 vs Placebo, Chi square analysis", "value": "54 +/- 31"}, {"measurement": "Stenosed Degree After PTCA", "setting": "treated group, 43 sites, immediately after PTCA, 100 mg twice a day orally, control 32 +/- 23", "value": "35 +/- 28"}]}
